Data as given in patent publication US8143216B2, “Modified human growth hormone” (Ambrx, Inc., priority 2004, dated 2012).

Assays:
[1] = tested on: rat model of growth hormone deficiency (hypophysectomized rats); experiment: Efficacy studies of PEGylated hGH in a rat model of growth hormone deficiency (Example 34); format: in vivo
Experimental: Preclinical efficacy studies were conducted in a rat model of growth hormone deficiency. In this model, the pituitary gland was surgically removed at approximately 4 weeks of age. The body weights of these hypophysectomized rats were monitored after surgery and animals showing less than 7.5 grams of bodyweight gain over a period of 7 days before the study were deemed successfully hypophysectomized and were randomized amongst the treatment groups. Animals showing more than 2.5 g of weight-loss were deemed not healthy and were excluded from the study. The study was initiated approximately 3 weeks after the surgery.
Animals were dosed weekly (i.e. dosed on days 0 and 7) with either placebo or increasing PEG-^ahGH dose. An additional treatment group received Genotropin or placebo daily. Bodyweights and blood were collected predose and daily. All animals were sacrificed on day 14.
For this parameter, the AUC is expressed as AUC above the efficacious IGF-1 plasma level. […] In the current study, the baseline IGF-1 level determined from the placebo group throughout the study was 128 ng/mL. An increase of 34 ng/mL over 128 ng/mL estimates an efficacious IGF-1 level of 162 ng/mL. Thus the AUC above 162 ng/mL was integrated. From this analysis, a dose-dependent increase in AUC above efficacious level was observed after each dose interval.
The duration of IGF-1 levels induced above the estimated efficacious level after the first dose was determined. At the higher doses, the IGF-1 levels had not returned to baseline before the second dose. In these instances, the IGF-1 concentration was extrapolated to the efficacious level using the calculated terminal slopes. From this evaluation, a dose-dependent increase in duration of IGF-1 concentration above the efficacious level was evident.
Bone growth was used as an additional pharmacodynamic measure to calculate the PEG-^ahGH ED50. Tibias were collected from each animal at the end of the study and immersion fixed in 10% neutral-buffered formalin followed by radiography. There was a clear dose-dependent increase in tibial bone length for the PEG-^ahGH treated animals. Moreover, there was a dose sparing effect compared to the daily Genotropin treated animals. The amount of Genotropin administered over a 7-day interval is equivalent to 2.1 mg/kg of PEG-^ahGH given weekly (i.e., days 0 and 7). An induction of tibial bone length increase similar to Genotropin is shown for PEG-^ahGH at 0.42 to 1.0 mg/kg. This represents a ≧50% dose-sparing effect for PEG-^ahGH when compared to Genotropin.

[2] = Rat pharmacokinetics: PEG-ahGH plasma concentration in the rat disease model; format: in vivo
Experimental: The same plasma samples collected for IGF-1 concentration determination were also assayed for PEG-^ahGH concentration. […] The duration of PEG-^ahGH persistence in the circulation, as well as the overall PEG-^ahGH AUC, increased in a dose-dependent manner. […] The PEG-^ahGH exposure results support the dose-dependent efficacy shown above.
Plasma concentration versus time profiles for PEG-^ahGH administered subcutaneously at various doses in the rat disease model are shown in Example 34, above.

rat GHR ECD (L43R) = biological target: T1, rat GHR ECD (L43R) (Rattus norvegicus, UniProt P16310, L61R); experiment: Biacore analysis of binding of GH to GHR; settings: rat GHR ECD (L43R) immobilized on a CM5 chip, bivalent analyte model
T1 construct: (GHR ECD, amino acids S29-T238) was cloned into pET20b vector; made in house
T1 sequence (P16310 47-256 L61R): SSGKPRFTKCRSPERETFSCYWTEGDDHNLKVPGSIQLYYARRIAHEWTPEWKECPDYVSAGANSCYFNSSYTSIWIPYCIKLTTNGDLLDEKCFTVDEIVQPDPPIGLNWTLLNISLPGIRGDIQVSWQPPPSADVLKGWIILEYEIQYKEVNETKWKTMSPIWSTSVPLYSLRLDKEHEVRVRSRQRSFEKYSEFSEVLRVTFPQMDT
Experimental: Cloning and purification of rat GH receptor The extracellular domain of rat GH receptor (GHR ECD, amino acids S29-T238) was cloned into pET20b vector (Novagen) between Nde I and Hind III sites in frame with C-terminal 6H is tag. A mutation of L43 to R was introduced to further approximate the human GH receptor binding site (Souza et al., Proc Natl Acad Sci USA. (1995) 92(4): 959-63). Recombinant protein was produced in BL21 (DE3) E. coli cells (Novagen) by induction with 0.4 mM IPTG at 30° C. for 4-5 hours. After lysing the cells, the pellet was washed four times by resuspending in a dounce with 30 mL of 50 mM Tris, pH 7.6, 100 mM NaCl, 1 mM EDTA, 1% Triton X-100, and twice with the same buffer without Triton X-100. […] Refolding was accomplished by means of passing an aliquot of the inclusion body solution through a S100 (Sigma) gel filtration column, equilibrated with 50 mM Tris, pH 7.8, 1 M L-arginine, 3.7 mM cystamine, 6.5 mM cysteamine. Fractions containing soluble protein were combined and dialyzed against 50 mM Tris, pH 7.6, 200 mM NaCl, 10% glycerol. The sample was briefly centrifuged to remove any precipitate and incubated with an aliquot of Talon resin (Clontech), according to manufacturer's instructions. After washing the resin with 20 volumes of dialysis buffer supplemented with 5 mM imidazole, protein was eluted with 120 mM imidazole in dialysis buffer. Finally, the sample was dialyzed overnight against 50 mM Tris, pH 7.6, 30 mM NaCl, 1 mM EDTA, 10% glycerol, centrifuged briefly to remove any precipitate, adjusted to 20% glycerol final concentration, aliquoted and stored at −80 C. Concentration of the protein was measured by OD(280) using calculated extinction coefficient of ε=65,700 M^−1*cm^−1.
Approximately 600-800 RUs of soluble GHR ECD was immobilized on a Biacore™ CM5 chip, using a standard amine-coupling procedure, as recommended by the manufacturer. […] See, e.g., Cunningham et al. J Mol. Biol. (1993) 234(3): 554-63 and Wells J A. Proc Natl Acad Sci USA (1996) 93(1): 1-6).
Various concentrations of wild type or mutant GH (0.1-300 nM) in HBS-EP buffer (Biacore™, Pharmacia) were injected over the GHR surface at a flow rate of 40 μl/min for 4-5 minutes, and dissociation was monitored for 15 minutes post-injection. The surface was regenerated by a 15 second pulse of 4.5M MgCl2. […] Reference cell with no receptor immobilized was used to subtract any buffer bulk effects and non-specific binding.
Kinetic binding data obtained from GH titration experiments was processed with BiaEvaluation 4.1 software (BIACORE™). […] Equilibrium dissociation constants (Kd) were calculated as ratios of individual rate constants (koff/kon).

[3] = biological target: T2, human growth hormone receptor on IM-9 cells (Homo sapiens, UniProt P10912); experiment: IM-9 pSTAT5 bioassay (STAT5 phosphorylation in IM-9 cells); format: cell-based; settings: IM-9 cells
T2 construct: host or cells: human IM-9 lymphocyte cell line
T2 sequence (P10912 19-638): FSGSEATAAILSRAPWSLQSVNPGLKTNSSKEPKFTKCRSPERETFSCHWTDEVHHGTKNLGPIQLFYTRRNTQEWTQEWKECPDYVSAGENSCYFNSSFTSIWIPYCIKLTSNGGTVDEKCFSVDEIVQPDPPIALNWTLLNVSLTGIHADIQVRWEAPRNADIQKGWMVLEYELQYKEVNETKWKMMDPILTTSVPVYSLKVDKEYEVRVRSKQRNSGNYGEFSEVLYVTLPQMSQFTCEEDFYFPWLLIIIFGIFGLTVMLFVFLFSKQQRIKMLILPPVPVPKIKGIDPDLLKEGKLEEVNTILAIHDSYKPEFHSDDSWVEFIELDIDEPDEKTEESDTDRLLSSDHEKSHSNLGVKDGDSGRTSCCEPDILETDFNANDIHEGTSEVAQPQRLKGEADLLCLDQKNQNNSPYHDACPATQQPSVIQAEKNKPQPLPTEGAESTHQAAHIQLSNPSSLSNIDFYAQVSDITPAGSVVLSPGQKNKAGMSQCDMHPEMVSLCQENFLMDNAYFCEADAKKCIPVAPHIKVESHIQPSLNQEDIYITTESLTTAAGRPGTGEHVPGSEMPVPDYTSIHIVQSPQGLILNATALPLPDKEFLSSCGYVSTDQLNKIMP
Excerpt: To further assess the biological activity of modified hGH polypeptides, an assay measuring a downstream marker of hGH's interaction with its receptor was used. The interaction of hGH with its endogenously produced receptor leads to the tyrosine phosphorylation of a signal transducer and activator of transcription family member, STAT5, in the human IM-9 lymphocyte cell line. Two forms of STAT5, STAT5A and STAT5B were identified from an IM-9 cDNA library. See, e.g., Silva et al., Mol. Endocrinol. (1996) 10(5):508-518.
IM-9 cells were stimulated with hGH polypeptides of the present invention. The human IM-9 lymphocytes were purchased from ATCC (Manassas, Va.) and grown in RPMI 1640 supplemented with sodium pyruvate, penicillin, streptomycin (Invitrogen, Carlsbad, San Diego) and 10% heat inactivated fetal calf serum (Hyclone, Logan, Utah). The IM-9 cells were starved overnight in assay media (phenol-red free RPMI, 10 mM Hepes, 1% heat inactivated charcoal/dextran treated FBS, sodium pyruvate, penicillin and streptomycin) before stimulation with a 12-point dose range of hGH polypeptides for 10 min at 37° C. Stimulated cells were fixed with 1% formaldehyde before permeabilization with 90% ice-cold methanol for 1 hour on ice. The level of STAT5 phosphorylation was detected by intra-cellular staining with a primary phospho-STAT5 antibody (Cell Signaling Technology, Beverly, Mass.) at room temperature for 30 min followed by a PE-conjugated secondary antibody. Sample acquisition was performed on the FACS Array with acquired data analyzed on the Flowjo software (Tree Star Inc., Ashland, Oreg.). EC50 values were derived from dose response curves plotted with mean fluorescent intensity (MFI) against protein concentration utilizing SigmaPlot.
The interaction of hGH with its receptor leads to the tyrosine phosphorylation of a signal transducer and activator of transcription family member, STAT5, in the human IM-9 lymphocyte cell line.

[4] = On day 14, after 2 weekly s.c. doses
[5] = after the first dose, curve fitting
[6] = curve fitting of the AUC values from the first dose
[7] = curve fitting of the Cmax values from the first dose

In the case of “PEG-^ahGH: PEGylated hGH of SEQ ID NO:2, para-acetylphenylalanine at position 35 linked via an oxime bond to a linear 30 kDa PEG”, the “bodyweight change on day 14” value ([1]; 1.0 mg/kg on days 0 and 7) is reported as 27.02 (+/−3.97) %, the “bodyweight change on day 14 from day 0” value ([1]; 2.1 mg/kg on days 0 and 7) is reported as 33.66 (+/−7.55) % and the “ED50, Duration of IGF-1 Above Efficacious Level” value ([1]; After single s.c. dose) is reported as 0.173 mg/kg. The “ED50, IGF-1 AUC Above Efficacious Level” value ([1]; After single s.c. dose) was 0.909 mg/kg, the “ED50, IGF-1 Induction: IGF-1 Cmax” value ([1]; After single s.c. dose) was 0.136 mg/kg and the “Range of Effect (Eo-Emax), Duration of IGF-1 Above Efficacious Level” value ([1]; After single s.c. dose) was 0 to 8.84 days. For the same molecule, the “Range of Effect (Eo-Emax), IGF-1 AUC Above Efficacious Level” value ([1]; After single s.c. dose, AUC above 162 ng/mL) was 0-5,029.8 ng × hr/mL, the “ED50, Tibial Bone Length” value [1, 4] was 0.424 mg/kg and the “Range of Effect (Eo-Emax), Percent Bodyweight Change” value [1, 4] was 7.17-50.65%. For the same molecule, the “Range of Effect (Eo-Emax), Tibial Bone Length” value [1, 4] was 30.52-33.67 mm, the “dose-sparing effect over Genotropin (percent bodyweight change)” value ([1]; PEG-ahGH 1.0 mg/kg on days 0 and 7 vs Genotropin 0.3 mg/kg/day) was roughly 50% and the “dose-sparing effect when compared to Genotropin (tibial bone length)” value ([1]; PEG-ahGH 0.42 to 1.0 mg/kg weekly vs daily Genotropin equivalent to 2.1 mg/kg weekly) was no less than 50%. For the same molecule, the “maximum duration of IGF-1 concentration above the efficacious level” value [1, 5] was 8.84 days, the “minimum duration of IGF-1 concentration above the efficacious level” value [1, 5] was 0 days and the “Emax IGF-1 AUC above efficacious level” value [1, 6] was 5,029.8 ng×hr/mL. For the same molecule, the “Eo IGF-1 AUC above efficacious level” value [1, 6] was 0 ng·h/mL, the “maximum (Emax) IGF-1 Cmax” value [1, 7] was 1,136.2 ng/mL and the “minimum (Eo) IGF-1 Cmax” value [1, 7] was 136.7 ng/mL. For the same molecule, the “maximum percent bodyweight change” value ([1]; day 14, curve fitting) was 50.65%, the “minimum percent bodyweight change” value ([1]; day 14, curve fitting) was 7.17% and the “plasma IGF-1 levels throughout the study” value ([1]; dosed weekly (days 0 and 7) with increasing dose, FIG. 28) was “robust, dose-dependent increase in IGF-1”. For the same molecule, the “plasma concentration (hGH ELISA)” value ([2]; hypophysectomized rats, PEG-ahGH s.c. on days 0 and 7, Genotropin daily) was “dose-dependent increase in PEG-^ahGH Cmax” and the apparent terminal half-life ([2]; in rat, subcutaneous) was 7.05 (+/−0.47) hours.

In the case of “unPEGylated GH: unPEGylated GH administered weekly at 2.1 mg/kg in hypophysectomized rats [reference compound]”, the body weight gain ([1]; weekly at 2.1 mg/kg dose) is reported as “failed to induce body weight gain”.

In the case of “Genotropin: commercial preparation of hGH, Genotropin™ (Pfizer) [reference compound]”, the “bodyweight change on day 14 from day 0” value ([1]; daily treatment at 0.3 mg/kg/day) is reported as 27.74 (+/−7.92) %.

B1: rat GH WT: wild type rat growth hormone (protein)
chain: FPAMPLSSLFANAVLRAQHLHQLAADTYKEFERAYIPEGQRYSIQNAQAAFCFSETIPAPTGKEEAQQRTDMELLRFSLLLIQSWLGPVQFLSRIFTNSLMFGTSDRVYEKLKDLEEGIQALMQELEDGSPRIGQILKQTYDKFDANMRSDDALLKNYGLLSCFKKDLHKAETYLRVMKCRRFAESSCAF
With B1 the kon (rat GHR ECD (L43R)) was 33000 M⁻¹ s⁻¹ and the STAT5 phosphorylation [3] was “neither rat growth hormone nor human prolactin resulted in detectable STAT5 phosphorylation”.

B2: human prolactin: human prolactin (protein)
chain: LPICPGGAARCQVTLRDLFDRAVVLSHYIHNLSSEMFSEFDKRYTHGRGFITKAINSCHTSSLATPEDKEQAQQMNQKDFLSLIVSILRSWNEPLYHLVTEVRGMQEAPEAILSKAVEIEEQTKRLLEGMELIVSQVHPETKENEIYPVWSGLPSLQMADEESRLSAYYNLLHCLRRDSHKIDNYLKLLKCRIIHNNNC
In the case of B2, the STAT5 phosphorylation [3] is reported as “neither rat growth hormone nor human prolactin resulted in detectable STAT5 phosphorylation”.
